# Patent US8008329B2 (Dong Wha Pharmaceutical Co., Ltd., priority 2008, dated 2011)
# Marks after values point to notes of the source that are not given here.
# Test system: osteoclast differentiation
# Test: Osteoclast differentiation in co-culture of mouse bone marrow cells and ST2 cells, TRAP staining (Examples 8-9)
# Format: cell-based
# Conditions: for % number of osteoclast (vs. solvent control group): 0.1 μM each, day 7; for activity at 0.1 µM: Mus musculus, Osteoclast, 168 h, Individual treatment (compounds), day 7, read-out: % number of osteoclast (vs. solvent control group)
# Description: The differentiation of osteoclast from mouse bone marrow cells was induced by using co-culture system, and inhibitory effect of the drug on osteoclast differentiation was evaluated by treatment of single or combination formulation. Co-culture was performed using mouse bone marrow cells and ST cells of bone marrow-derived stromal cell.
# Femora and tibia were aseptically ectomized from 6˜8 week-old male ddY mice to harvest bone marrow cells by a general method using a syringe. The red blood cells were removed from the bone marrow cells, followed by centrifugation. The bone marrow cells were suspended in α-MEM medium supplemented with 10% fetal bovine serum, and the numbers of the eukaryotic cells in the harvested bone marrow cells were counted and then immediately used for a co-culture system.
# ST2 cells (RIKEN Cell Bank, Tsukuba, Japan) were cultured in α-MEM medium supplemented with 10% fetal bovine serum until confluent. Then, these cells were diluted to a desired cell number, and used for the experiment.
# The bone marrow cells (1×10^5 cells/well) and ST2 cells (3,000 cells/well) prepared in the above were plated in a 96-well plate using α-MEM medium supplemented with 10% fetal bovine serum. At this time, differentiation factors, 1α,25-dihydroxyvitamin D3 (10^−8 M, hereinbelow, referred to as vitamin D3) and dexamethasone (10^−8 M), were co-added to the medium to induce osteoclast differentiation. The medium was replaced with fresh media containing the differentiation factors every 2 to 3 days.
# After 7 days, when multinucleated osteoclasts were observed, the medium was removed from the wells, and then the cells were fixed with PBS containing 10% Formalin. Tartrate-Resistant Acid Phosphatase (hereinbelow, referred to as TRAP) was used as a marker to measure the mature osteoclast in consideration of its characteristics showing a positive reaction to a TRAP staining solution. The TRAP staining solution was prepared in such the manner that a substrate, naphtol AS-MS phosphate and a coloring agent (Fast Red Violet LB salt) were dissolved in N,N-dimethylformamide. A 0.1 N NaHCO3 buffer solution containing 50 mM tartaric acid was added thereto, and the mixture was stored at a refrigerator prior to use as a staining solution. The osteoclasts with 6-7 or more nuclei showing a TRAP-positive reaction were counted under a microscope.
# Alendronic acid was dissolved in distilled water at a concentration of 0.1 mM, and benzamidine derivatives were dissolved in DMSO at a concentration of 0.1 mM. All of them were diluted 1,000 fold with the differentiation media to a final concentration of 0.1 μM, respectively. In this connection, a control group was maintained in 0.1% DMSO.
# As the above described, the sample substances and cells, which were diluted to the desired concentrations, were plated in 96-well plate, and co-cultured. On days 3 and 5 of culture, the media were replaced with fresh differentiation media containing the sample substances. On day 7 of culture, TRAP staining was performed to count the mature multinucleated osteoclast that was formed by differentiation. The mature osteoclasts with 6 or more nuclei were counted under a microscope. The results were expressed as a percentage (%) of the number of mature osteoclast observed in each experimental group, when the number of mature osteoclast in the control group (solvent only) was regarded as 100%. The experiment was performed with 4 wells per experimental group (n=4), and the results were expressed as mean value±standard deviation. In addition, the experiment was repeated at least two times, and Student t-test was applied for significant difference between experimental groups.
# The experiment was performed in the same manner as in Example 8 to evaluate the effect of individual or combination treatment of risedronic acid and benzamidine derivatives of Formula 1 on osteoclast differentiation, except using 0.1 μM risedronic acid instead of 0.1 μM alendronic acid. […]
# [1] = Combination treatment (alendronic acid + compounds)
# [2] = Combination treatment (risedronic acid + compounds)
smiles,measurement,setting,value
"Cc1nc(-c2ccc(OCCCCCOc3ccc(C(=N)NO)cc3)cc2)cs1 [Compound 3, N-hydroxy-4-{5-[4-(2-methyl-1,3-thiazol-4-yl)phenoxy]pentyloxy}-benzamidine]",% number of osteoclast (vs. solvent control group),[1],40 ± 4.6^b %
same,% number of osteoclast (vs. solvent control group),[2],33 ± 6.8^c %
same,activity at 0.1 µM,,52 ± 8.9%
"N=C(NO)c1ccc(OCCCCCOc2ccc(-c3csc(-c4cccnc4)n3)cc2)cc1 [Compound 7, N-hydroxy-4-{5-[4-(2-pyridine-3-yl-1,3-thiazol-4-yl)phenoxy]pentyloxy}-benzamidine]",% number of osteoclast (vs. solvent control group),[1],35 ± 7.1^b %
same,% number of osteoclast (vs. solvent control group),[2],34 ± 10.1^c %
same,activity at 0.1 µM,,52 ± 4.8%
"N=C(NO)c1ccc(OCCCCCOc2ccc(-c3csc(C4CCCCC4)n3)cc2)cc1 [Compound 8, N-hydroxy-4-{5-[4-(2-cyclohexyl-1,3-thiazol-4-yl)phenoxy]pentyloxy}-benzamidine]",% number of osteoclast (vs. solvent control group),[1],22 ± 3.4^ab %
same,% number of osteoclast (vs. solvent control group),[2],27 ± 3.8^ac %
same,activity at 0.1 µM,,65 ± 10.4%
"CCCCCc1nc(-c2ccc(OCCCCCOc3ccc(C(=N)NO)cc3)cc2)cs1 [Compound 9, N-hydroxy-4-{5-[4-(2-pentyl-1,3-thiazol-4-yl)phenoxy]pentyloxy}-benzamidine]",% number of osteoclast (vs. solvent control group),[1],52 ± 15.8%
same,% number of osteoclast (vs. solvent control group),[2],43 ± 2.6^ac %
same,activity at 0.1 µM,,64 ± 3.4%
"CCCCCc1nc(-c2ccc(OCCCCCOc3ccc(C(=N)NO)cc3)cc2)c(C)s1 [Compound 15, N-hydroxy-4-{5-[4-(5-methyl-2-pentyl-1,3-thiazol-4-yl)phenoxy]pentyloxy}-benzamidine]",% number of osteoclast (vs. solvent control group),[1],43 ± 11.4%
same,% number of osteoclast (vs. solvent control group),[2],45 ± 9.2^ac %
same,activity at 0.1 µM,,69 ± 5.5%
"CCc1sc(-c2cccnc2)nc1-c1ccc(OCCCCCOc2ccc(C(=N)NO)cc2)cc1 [Compound 21, N-hydroxy-4-{5-[4-(5-ethyl-2-pyridin-3-yl-1,3-thiazol-4-yl)phenoxy]pentyloxy}-benzamidine]",% number of osteoclast (vs. solvent control group),[1],22 ± 7.1^ab %
same,% number of osteoclast (vs. solvent control group),[2],47 ± 10.1%
same,activity at 0.1 µM,,52 ± 10.4%
"CCCCc1sc(C(C)(C)C)nc1-c1ccc(OCCCCCOc2ccc(C(=N)NO)cc2)cc1 [Compound 37, N-hydroxy-4-{5-[4-(5-butyl-2-t-butyl-1,3-thiazol-4-yl)phenoxy]pentyloxy}-benzamidine]",% number of osteoclast (vs. solvent control group),[1],30 ± 9.9^b %
same,% number of osteoclast (vs. solvent control group),[2],36 ± 14.4^c %
same,activity at 0.1 µM,,68 ± 18.9%
"N=C(NO)c1ccc(OCCCCCOc2ccc(-c3nc(-c4ccccc4)sc3Cc3ccccc3)cc2)cc1 [Compound 40, N-hydroxy-4-{5-[4-(5-benzyl-2-phenyl-1,3-thiazol-4-yl)phenoxy]pentyloxy}-benzamidine]",% number of osteoclast (vs. solvent control group),[1],28 ± 4.1^ab %
same,% number of osteoclast (vs. solvent control group),[2],20 ± 3.4^ac %
same,activity at 0.1 µM,,66 ± 7.1%
"N=C(NO)c1ccc(OCCCCCOc2ccc(-c3nc(-c4cccnc4)sc3Cc3ccccc3)cc2)cc1 [Compound 41, N-hydroxy-4-{5-[4-(5-benzyl-2-pyridin-3-yl-1,3-thiazol-4-yl)phenoxy]pentyloxy}-benzamidine]",% number of osteoclast (vs. solvent control group),[1],29 ± 5.0^b %
same,% number of osteoclast (vs. solvent control group),[2],31 ± 2.6^c %
same,activity at 0.1 µM,,31 ± 9.4%
"Cc1nc(-c2ccc(OCCCCCOc3ccc(C(=N)NO)cc3)cc2)c(CCCl)s1 [Compound 42, N-hydroxy-4-{5-[4-(5-(2-chloro-ethyl)-2-methyl-1,3-thiazol-4-yl)phenoxy]pentyloxy}-benzamidine]",% number of osteoclast (vs. solvent control group),[1],33 ± 1.9^ab %
same,% number of osteoclast (vs. solvent control group),[2],32 ± 8.0^ac %
same,activity at 0.1 µM,,69 ± 11.4%
"Cc1nc(-c2ccc(OCCCCCOc3ccc(C(=N)NO)cc3)cc2)c(C2CCCC2)s1 [Compound 43, N-hydroxy-4-{5-[4-(5-cyclopentyl-2-methyl-1,3-thiazol-4-yl)phenoxy]pentyloxy}-benzamidine]",% number of osteoclast (vs. solvent control group),[1],32 ± 6.6^ab %
same,% number of osteoclast (vs. solvent control group),[2],40 ± 7.8^c %
same,activity at 0.1 µM,,74 ± 14.6%
"Cc1nc(-c2ccc(OCCCCCOc3ccc(C(=N)NO)cc3)cc2)c(CC2CCCC2)s1 [Compound 45, N-hydroxy-4-{5-[4-(5-cyclopentylmethyl-2-methyl-1,3-thiazol-4-yl)phenoxy]pentyloxy}-benzamidine]",% number of osteoclast (vs. solvent control group),[1],49 ± 8.1^ab %
same,% number of osteoclast (vs. solvent control group),[2],38 ± 11.9^ac %
same,activity at 0.1 µM,,72 ± 4.6%
"CCc1nc(-c2ccc(OCCCCCOc3ccc(C(=N)NO)cc3)cc2)c(CC2CCCC2)s1 [Compound 46, N-hydroxy-4-{5-[4-(5-cyclopentylmethyl-2-ethyl-1,3-thiazol-4-yl)phenoxy]pentyloxy}-benzamidine]",% number of osteoclast (vs. solvent control group),[1],36 ± 5.1^ab %
same,% number of osteoclast (vs. solvent control group),[2],31 ± 8.5^ac %
same,activity at 0.1 µM,,71 ± 9.4%
"CC(C)c1nc(-c2ccc(OCCCCCOc3ccc(C(=N)NO)cc3)cc2)c(CC2CCCC2)s1 [Compound 47, N-hydroxy-4-{5-[4-(5-cyclopentylmethyl-2-isopropyl-1,3-thiazol-4-yl)phenoxy]pentyloxy}-benzamidine]",% number of osteoclast (vs. solvent control group),[1],42 ± 4.6^b %
same,% number of osteoclast (vs. solvent control group),[2],32 ± 3.0^ac %
same,activity at 0.1 µM,,57 ± 7.9%
"Cc1nc(-c2ccc(OCCCCCOc3ccc(C(=N)N)cc3)cc2)c(C)s1 [Compound 54, 4-{5-[4-(2,5-dimethyl-1,3-thiazol-4-yl)phenoxy]pentyloxy}-benzamidine]",% number of osteoclast (vs. solvent control group),[1],20 ± 4.1^ab %
same,% number of osteoclast (vs. solvent control group),[2],19 ± 4.9^ac %
same,activity at 0.1 µM,,41 ± 8.3%
"Cc1sc(NC(=N)N)nc1-c1ccc(OCCCCCOc2ccc(C(=N)NO)cc2)cc1 [Compound 59, N-hydroxy-4-{5-[4-(2-guanidino-5-methyl-1,3-thiazol-4-yl)phenoxy]pentyloxy}-benzamidine]",% number of osteoclast (vs. solvent control group),[1],34 ± 2.2^ab %
same,% number of osteoclast (vs. solvent control group),[2],33 ± 5.1^ac %
same,activity at 0.1 µM,,55 ± 6.5%
"N=C(NO)c1ccc(OCCCCCOc2ccc(-c3nc(N)sc3CC3CCCC3)cc2)cc1 [Compound 67, N-hydroxy-4-{5-[4-(2-amino-5-cyclopentylmethyl-1,3-thiazol-4-yl)phenoxy]pentyloxy}-benzamidine]",% number of osteoclast (vs. solvent control group),[1],53 ± 6.4^b %
same,% number of osteoclast (vs. solvent control group),[2],36 ± 1.7^ac %
same,activity at 0.1 µM,,74 ± 11.7%
"CCCN1CCC(c2nc(-c3ccc(OCCCCCOc4ccc(C(=N)NO)cc4)cc3)c(CC3CCCC3)s2)CC1 [Compound 68, N-hydroxy-4-{5-[4-(5-cyclopentylmethyl-2-(1-propyl-piperidin-4-yl)-1,3-thiazol-4-yl)phenoxy]pentyloxy}-benzamidine]",% number of osteoclast (vs. solvent control group),[1],14 ± 1.4^ab %
same,% number of osteoclast (vs. solvent control group),[2],8 ± 1.9^ac %
same,activity at 0.1 µM,,42 ± 6.9%
"Cc1sc(NC(=O)C(C)C)nc1-c1ccc(OCCCCCOc2ccc(C(=N)NO)cc2)cc1 [Compound 69, N-hydroxy-4-{5-[4-(2-(isobutyryl)amino-5-methyl-1,3-thiazol-4-yl)phenoxy]pentyloxy}-benzamidine]",% number of osteoclast (vs. solvent control group),[1],49 ± 7.8^ab %
same,% number of osteoclast (vs. solvent control group),[2],44 ± 1.4^ac %
same,activity at 0.1 µM,,80 ± 11.6%
"CCCN1CCC(c2nc(-c3ccc(OCCCCCOc4ccc(C(=N)NO)cc4)cc3)c(C)s2)CC1 [Compound 72, N-hydroxy-4-{5-[4-(5-methyl-2-(1-propyl-piperidin-4-yl)-1,3-thiazol-4-yl)phenoxy]pentyloxy}-benzamidine]",% number of osteoclast (vs. solvent control group),[1],30 ± 4.0^ab %
same,% number of osteoclast (vs. solvent control group),[2],12 ± 3.2^ac %
same,activity at 0.1 µM,,63 ± 1.1%
